pIC50: −log10 of the molar value.
biological target: T1, EGFR LRCS (BaF3-LRCS cell line) (Homo sapiens, UniProt P00533, C797S/L858R); experiment: HTRF Phospho EGFR LRCS assay (cellular); assay type: cell-based; details: BaF3-LRCS cells, 4 hours incubation with compound, Phospho-EGFR HTRF readout
T1 construct: host or cells: BaF3 (BaF3-LRCS engineered line, kept under puromycin)
Method: HTRF Phospho EGFR LRCS Assay (Cellular)
BaF3-LRCS cell line were obtained from Crownbio (San Diego, CA, USA). Cells were maintained at 37° C., 5% CO2 in RPMI ATCC (Gibco 31870)+2 mM Glutamine+0.5 μg/ml Puromycin supplemented with 10% fetal bovine serum (FBS) (Gibco).
Cells are transferred as above to Greiner Bio-One, Nr. 784-08 micro-titerplate at 20000 cells/well in 12.5 μl of growth medium/well after the plates had been pre-filled with 12.5 nl of DMSO solutions of the to be tested compounds (in dose response) or DMSO only. After spinning the plates at 300×g for 30 seconds the cells were incubated for 4 hours at 37 C, 5% CO2, 95% humidity. The cells were lysed by adding to the compound mix 4 μl/well of the supplemented lysis buffer (Cis-bio, Phospho-EGFR HTRF kit, 64EG1PEH), followed by incubation for 30 min at room temperature with shaking (400 rpm). The plates were then frozen and stored overnight at −80° C. On the next day and after thawing the plates, 4 μl of a mixture of anti-Phospho-EGFR Cryptate and of anti-Phospho-EGFR-d2 antibody solutions prepared in the supplied detection buffer was added to each well. The lidded plates were then incubated for 4 h at room temperature before reading the fluorescence emission at 616 and 665 nm using an Envision reader (Perkin Elmer). Data was analyzed in similar fashion as above using the normalized ratio of the 665 to 616 signals multiplied by 10000.

T1 sequence (P00533 25-1210 C797S/L858R): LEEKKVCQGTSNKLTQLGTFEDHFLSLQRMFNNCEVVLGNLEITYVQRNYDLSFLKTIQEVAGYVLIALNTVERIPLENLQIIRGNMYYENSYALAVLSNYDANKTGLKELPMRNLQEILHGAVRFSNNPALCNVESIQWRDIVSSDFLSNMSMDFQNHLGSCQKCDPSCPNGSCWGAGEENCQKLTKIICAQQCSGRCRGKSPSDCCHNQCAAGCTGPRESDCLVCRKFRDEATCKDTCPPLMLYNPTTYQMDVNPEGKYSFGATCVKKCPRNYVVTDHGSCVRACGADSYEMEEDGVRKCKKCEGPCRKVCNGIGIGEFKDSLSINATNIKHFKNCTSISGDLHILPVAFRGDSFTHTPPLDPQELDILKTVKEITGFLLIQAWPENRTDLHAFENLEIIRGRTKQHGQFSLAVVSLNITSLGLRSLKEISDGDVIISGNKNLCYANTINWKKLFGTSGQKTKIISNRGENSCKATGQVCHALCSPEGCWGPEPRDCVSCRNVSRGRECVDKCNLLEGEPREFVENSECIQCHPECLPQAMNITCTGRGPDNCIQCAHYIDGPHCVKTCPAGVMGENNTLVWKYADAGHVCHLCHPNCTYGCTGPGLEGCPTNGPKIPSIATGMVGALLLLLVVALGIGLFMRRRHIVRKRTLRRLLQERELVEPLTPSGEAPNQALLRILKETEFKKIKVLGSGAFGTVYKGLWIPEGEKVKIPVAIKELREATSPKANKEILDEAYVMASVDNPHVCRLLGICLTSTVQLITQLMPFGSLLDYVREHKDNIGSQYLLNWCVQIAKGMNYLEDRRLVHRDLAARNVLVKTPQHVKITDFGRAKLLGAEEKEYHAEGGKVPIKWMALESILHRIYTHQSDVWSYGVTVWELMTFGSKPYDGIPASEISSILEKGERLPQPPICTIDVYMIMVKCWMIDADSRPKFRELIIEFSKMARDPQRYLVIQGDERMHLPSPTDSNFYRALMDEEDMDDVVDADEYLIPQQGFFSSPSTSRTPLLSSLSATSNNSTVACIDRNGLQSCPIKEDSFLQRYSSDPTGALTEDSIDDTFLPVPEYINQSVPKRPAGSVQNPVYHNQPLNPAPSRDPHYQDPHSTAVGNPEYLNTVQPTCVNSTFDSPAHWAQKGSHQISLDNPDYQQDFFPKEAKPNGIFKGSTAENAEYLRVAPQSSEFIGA

With `Cc1c(-c2ccc(CN(C)C3CCC(O)CC3)cc2)cc(C(F)F)c2cn(C(C(=O)Nc3nccs3)c3ncn4c3C[C@@H](F)C4)nc12` (stereo partly drawn) [Example 28, 2-[4-(Difluoromethyl)-6-[4-[[(4-hydroxycyclohexyl)-methyl-amino]methyl]phenyl]-7-methyl-indazol-2-yl]-2-[(6R)-6-fluoro-6,7-dihydro-5H-pyrrolo[1,2-c]imidazol-1-yl]-N-thiazol-2-yl-acetamide] as the compound, how does the pIC50 read?
The pIC50 was 7.47.

`Cc1c(-c2ccc(N3CCC(O)CC3)cc2)cc(C(F)F)c2cn(C(C(=O)Nc3nccs3)c3ncn4c3C[C@@H](F)C4)nc12` (stereo partly drawn) [Example 11, 2-[4-(Difluoromethyl)-6-[4-(4-hydroxy-1-piperidyl)phenyl]-7-methyl-indazol-2-yl]-2-[(6R)-6-fluoro-6,7-dihydro-5H-pyrrolo[1,2-c]imidazol-1-yl]-N-thiazol-2-yl-acetamide] was tested. Which pIC50 did it give?
Its pIC50 is 8.00.

How did the pIC50 turn out when `Cc1c(-c2ccc(N3CCN(CCO)CC3)cc2)cc(C(F)F)c2cn(C(C(=O)Nc3nccs3)c3ncn4c3C[C@@H](F)C4)nc12` (stereo partly drawn) [Example 20, 2-[4-(Difluoromethyl)-6-[4-[4-(2-hydroxyethyl)piperazin-1-yl]phenyl]-7-methyl-indazol-2-yl]-2-[(6R)-6-fluoro-6,7-dihydro-5H-pyrrolo[1,2-c]imidazol-1-yl]-N-thiazol-2-yl-acetamide] was run?
The pIC50 was 7.92.

`Cc1c(-c2ccc(CN3CCC(CO)CC3)cc2)cc(C(F)F)c2cn(C(C(=O)Nc3nccs3)c3ncn4c3C[C@@H](F)C4)nc12` (stereo partly drawn) [Example 6, 2-[4-(Difluoromethyl)-6-[4-[[4-(hydroxymethyl)-1-piperidyl]methyl]phenyl]-7-methyl-indazol-2-yl]-2-[(6R)-6-fluoro-6,7-dihydro-5H-pyrrolo[1,2-c]imidazol-1-yl]-N-thiazol-2-yl-acetamide] was tested. Which pIC50 did it give?
The pIC50 was 7.80.

With `Cc1c(-c2ccc(N3CCOCC3)cc2)cc(C(F)F)c2cn(C(C(=O)Nc3nccs3)c3ncn4c3C[C@@H](F)C4)nc12` (stereo partly drawn) [Example 1, 2-[4-(Difluoromethyl)-7-methyl-6-(4-morpholinophenyl)indazol-2-yl]-2-[(6R)-6-fluoro-6,7-dihydro-5H-pyrrolo[1,2-c]imidazol-1-yl]-N-thiazol-2-yl-acetamide] as the compound, how does the pIC50 read?
The pIC50 was 8.10.

How did the pIC50 turn out when `Cc1c(-c2ccc(CCN3CCC(CO)CC3)cc2)cc(C(F)F)c2cn(C(C(=O)Nc3nccs3)c3ncn4c3C[C@@H](F)C4)nc12` (stereo partly drawn) [Example 9, 2-[4-(Difluoromethyl)-6-[4-[2-[4-(hydroxymethyl)-1-piperidyl]ethyl]phenyl]-7-methyl-indazol-2-yl]-2-[(6R)-6-fluoro-6,7-dihydro-5H-pyrrolo[1,2-c]imidazol-1-yl]-N-thiazol-2-yl-acetamide] was run?
Its pIC50 is 7.57.

With `CCN1C[C@H]2CN(c3ccc(-c4cc(C(F)F)c5cn(C(C(=O)Nc6nccs6)c6ncn7c6C[C@@H](F)C7)nc5c4C)cc3)C[C@]2(F)C1` (stereo partly drawn) [Example 25, 2-[6-[4-[(3aR,6aS)-2-Ethyl-3a-fluoro-3,4,6,6a-tetrahydro-1H-pyrrolo[3,4-c]pyrrol-5-yl]phenyl]-4-(difluoromethyl)-7-methyl-indazol-2-yl]-2-[(6R)-6-fluoro-6,7-dihydro-5H-pyrrolo[1,2-c]imidazol-1-yl]-N-thiazol-2-yl-acetamide] as the compound, how does the pIC50 read?
The pIC50 was 7.54.

How did the pIC50 turn out when `Cc1c(-c2ccc(OCCN3CCOCC3)cc2)cc(C(F)F)c2cn(C(C(=O)Nc3nccs3)c3ncn4c3C[C@@H](F)C4)nc12` (stereo partly drawn) [Example 18, 2-[4-(Difluoromethyl)-7-methyl-6-[4-(2-morpholinoethoxy)phenyl]indazol-2-yl]-2-[(6R)-6-fluoro-6,7-dihydro-5H-pyrrolo[1,2-c]imidazol-1-yl]-N-thiazol-2-yl-acetamide] was run?
Its pIC50 is 7.55.

How did the pIC50 turn out when `Cc1c(-c2ccc(CCN(C)C)cc2)cc(C(F)F)c2cn(C(C(=O)Nc3nccs3)c3ncn4c3C[C@@H](F)C4)nc12` (stereo partly drawn) [Example 4, 2-[4-(Difluoromethyl)-6-[4-[2-(dimethylamino)ethyl]phenyl]-7-methyl-indazol-2-yl]-2-[(6R)-6-fluoro-6,7-dihydro-5H-pyrrolo[1,2-c]imidazol-1-yl]-N-thiazol-2-yl-acetamide] was run?
Its pIC50 is 7.96.

`Cc1c(-c2ccc(N3CCOC(CN(C)C)C3)cc2)cc(C(F)F)c2cn(C(C(=O)Nc3nccs3)c3ncn4c3C[C@@H](F)C4)nc12` (stereo partly drawn) [Example 26, 2-[4-(Difluoromethyl)-6-[4-[2-[(dimethylamino)methyl]morpholin-4-yl]phenyl]-7-methyl-indazol-2-yl]-2-[(6R)-6-fluoro-6,7-dihydro-5H-pyrrolo[1,2-c]imidazol-1-yl]-N-thiazol-2-yl-acetamide] was tested. Which pIC50 did it give?
Its pIC50 is 7.11.
